Source: paper PMC9926234, “Iterative computational design and crystallographic screening identifies potent inhibitors targeting the Nsp3 macrodomain of SARS-CoV-2” (Proceedings of the National Academy of Sciences of the …, 2023)
“And” between values parts separate entries of the source, which are not always exact repeats. Equal entries are not always repeated. Where two headings read alike, the source gives them in different places.

How the values were obtained:
Format in all cases: binding
[1] = target: T1, SARS-CoV-2 NSP3 Mac1 (Severe acute respiratory syndrome coronavirus 2, UniProt P0DTD1); conditions: for Refined occupancy: ligand occupancy after refinement (phenix.refine)
[2] = target: T1, SARS-CoV-2 NSP3 Mac1; test: biochemical; conditions: for IC50: read-out: IC50; for Ki: Ki estimation from HTRF-derived IC50, Cheng-Prusoff, peptide 400nM, Kd 2.68µM, read-out: Ki***
[3] = target: T1, SARS-CoV-2 NSP3 Mac1; parameters: contains a conserved macrodomain enzyme (Mac1); conditions: for Spearman est (compound concentration vs apparent Tm): DSF dose responsiveness, 1 µM nsp3 mac1, adj p given
Outline: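 Differential scanning fluorimetry using 5 µM Fluorescent Yellow dye in place of SYPRO Orange. Compounds run in triplicate at seven two-fold dilutions from 1,000 or 100 μM, with ΔTma taken against a DMSO control in the same plate region. Dose-response significance assessed by Spearman's coefficient between concentration and ΔTma.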

[4] = PanDDA 1-BDC of the event, compound stock 100 mM, Echo dispense volume 40 nl
[5] = PanDDA event map 1-BDC, crystal soak, Compound_concentration 100 mM, PanDDA run dmso_34 or nohits_35 per dataset
[6] = PanDDA event map, 1 minus background density correction, crystal soaking of Mac1
[7] = crystal soak, Compound_concentration 100 mM, Echo dispense 40 nl, PanDDA run dmso_34 or nohits_35 per dataset
[8] = crystal soak, compound stock 100 mM, Echo dispense volume 40 nl
[9] = ligand modeled in structure, compound stock 100 mM, Echo dispense volume 40 nl
[10] = true hit = binding in crystallographic soaking or the HTRF-based binding assay
[11] = HTRF ADPr-peptide displacement from SARS-CoV-2 Mac1
[12] = PanDDA 1-BDC of the event, compound stock 100 mM, Echo dispense volume 80 nl
[13] = crystal soak, compound stock 100 mM, Echo dispense volume 80 nl
[14] = ligand modeled in structure, compound stock 100 mM, Echo dispense volume 80 nl
[15] = maximal thermal upshift vs DMSO control
[16] = overall hit flag: binding in crystallographic soaking or the HTRF-based binding assay
[17] = PanDDA 1-BDC value of the event, crystal soak, compound concentration 100 mM, per dataset
[18] = crystal soak, compound concentration 100 mM, per dataset
[19] = PanDDA 1-BDC (background density correction) of the event, crystal soak 100 mM, PanDDA run dmso_34
[20] = crystal soak, compound concentration 100 mM, PanDDA run dmso_34, series docking_lead-like_1
[21] = ligand modeled in the crystal structure, crystal soak 100 mM, PanDDA run dmso_34
[22] = ligand modeled in the crystal structure, crystal soak, compound concentration 100 mM, per dataset
[23] = ligand modeled from this dataset, compound concentration 100 mM

O=C(O)C[C@@H]1CN(c2ncnc3[nH]c4cc(F)ccc4c23)C[C@H](CO)O1 [LL114_0001]
1-BDC [1, 4]: 0.12
1-BDC [1, 5]: 0.14
1-BDC (PanDDA) [1, 6]: 0.12
PanDDA hit? [1, 7]: TRUE
PanDDA hit? [1, 8]: TRUE
Modeled? [1, 9]: TRUE
Refined occupancy ([1]; crystal soaking of Mac1): 24
HIT* [1, 10]: Y
IC50 [2, 11]: 8 µM
IC50 ([2]; HTRF): 8.2 µM
Ki [2]: 7.1 µM

O=C(O)CC1CN(c2ncnc3[nH]c4cc(Br)ccc4c23)CCO1 (centres unmarked) [LL114_0014]
HIT* [1, 10]: Y
IC50 ([2]; HTRF): 25.9 µM
Ki [2]: 22.5 µM

CS(=O)(=O)NC(=O)C1CN(c2ncnc3[nH]c4cc(F)ccc4c23)CCO1 (centres unmarked) [LL114_0019]
1-BDC [1, 4]: 0.1
1-BDC (PanDDA) [1, 6]: 0.1
PanDDA hit? [1, 8]: TRUE
Modeled? [1, 9]: TRUE
Refined occupancy ([1]; crystal soaking of Mac1): 20
HIT* [1, 10]: Y
IC50 [2, 11]: 12 µM
IC50 ([2]; HTRF): 12.3 µM
Ki [2]: 10.7 µM

O=C(O)C1(F)CN(c2ncnc3[nH]c4cc(Br)ccc4c23)CC12CCC2 (centres unmarked) [LL123_0006]
1-BDC [1, 4]: 0.08
1-BDC [1, 12]: 0.15
1-BDC (PanDDA) [1, 6]: 0.08
PanDDA hit? [1, 8]: TRUE
PanDDA hit? [1, 13]: TRUE
Modeled? [1, 9]: TRUE
Refined occupancy ([1]; crystal soaking of Mac1): 16
HIT* [1, 10]: Y
IC50 ([2]; HTRF): 92.9 µM
Ki [2]: 80.8 µM

O=C(O)C1CN(c2ncnc3[nH]c4cc(F)ccc4c23)CCC12CCC2 (centres unmarked) [LL123_0029]
1-BDC [1, 12]: 0.11
1-BDC (PanDDA) [1, 6]: 0.11
PanDDA hit? [1, 13]: TRUE
Modeled? [1, 14]: TRUE
Refined occupancy ([1]; crystal soaking of Mac1): 22
HIT* [1, 10]: Y
IC50 [2, 11]: 16 µM
IC50 ([2]; HTRF): 15.9 µM
Ki [2]: 13.8 µM

CS(=O)(=O)NC(=O)C1(F)CN(c2ncnc3[nH]c4cc(F)ccc4c23)CC12CCC2 (centres unmarked) [LL123_0036]
1-BDC [1, 12]: 0.18
1-BDC [1, 5]: 0.2
1-BDC (PanDDA) [1, 6]: 0.18
PanDDA hit? [1, 7]: TRUE
PanDDA hit? [1, 13]: TRUE
Modeled? [1, 14]: TRUE
Refined occupancy ([1]; crystal soaking of Mac1): 36
HIT* [1, 10]: Y
IC50 [2, 11]: 17.1 µM and 17 µM
Ki [2]: 14.8 µM

O=C(O)CC1CN(c2ncnc3[nH]c4ccccc4c23)CC(C(F)(F)F)O1 (centres unmarked) [Z1229]
HIT* [1, 10]: Y
IC50 ([2]; HTRF): 119 µM
Ki [2]: 104 µM

CN(C(=O)c1ccc(NC(=O)NC2CC2)cc1)C1c2cccc(O)c2CC1C(=O)O (centres unmarked) [Z8539_0056]
binding to Mac1 in the HTRF assay, result in words [2]: inactive

Cc1nc(Cn2cnc3c(N)nc(N)nc32)cs1 [Z8569]
DSF max dTma [3, 15]: 0.53 °C
HIT* [1, 16]: Y

Nc1nc(N)c2ncn(Cc3csc(Cl)n3)c2n1 [Z8572]
DSF max dTma [3, 15]: 1.1 °C
HIT* [1, 16]: Y

Nc1nc(N)c2ncn(Cc3csc(C4CC4)n3)c2n1 [Z8585]
DSF max dTma [3, 15]: 1.3 °C
HIT* [1, 16]: Y

O=C1CCCN1CCSc1ncnc2[nH]cnc12 [Z9920]
DSF max dTma [3, 15]: 0.95 °C
HIT* [1, 16]: Y

Cc1ccc(-c2nc(Cn3cnc4c(N)nc(N)nc43)cs2)o1 [Z4718398580]
Spearman est (compound concentration vs apparent Tm) [3]: 0.74
DSF max dTma [3, 15]: 0.71 °C
1-BDC [1, 17]: 0.28
1-BDC ([1]; PanDDA event map, 1-BDC of the hit dataset, crystal soak, compound concentration 100 mM, listed as Z8580): 0.35 and 0.45
1-BDC [1, 6]: 0.45
PanDDA hit? [1, 18]: TRUE
Modeled? ([1]; ligand modeled from this dataset, crystal soak, compound concentration 100 mM): TRUE
Refined occupancy ([1]; crystal soaking of Mac1): 60
HIT* [1, 16]: Y

N#Cc1ccc(OCCn2cnc3c(N)ncnc32)cc1 [ZINC000043461211]
Spearman est (compound concentration vs apparent Tm) [3]: 0.26
DSF max dTma [3, 15]: 0.45 °C
1-BDC [1, 19]: 0.31
1-BDC [1, 6]: 0.31
PanDDA hit? [1, 20]: TRUE
Modeled? [1, 21]: TRUE
Refined occupancy ([1]; crystal soaking of Mac1): 62
HIT* [1, 16]: Y

Nc1ncnc2c1ncn2Cc1cccc(C(F)(F)F)c1 [ZINC000110510893]
Spearman est (compound concentration vs apparent Tm) [3]: 0.5
DSF max dTma [3, 15]: 0.5 °C
1-BDC [1, 19]: 0.35
1-BDC [1, 6]: 0.35
PanDDA hit? [1, 20]: TRUE
Modeled? [1, 21]: TRUE
Refined occupancy ([1]; crystal soaking of Mac1): 70
HIT* [1, 16]: Y

Nc1ncnc(N2CCC(Oc3ccncc3)C2)c1Cl (centres unmarked) [ZINC000302059710]
Spearman est (compound concentration vs apparent Tm) [3]: −0.85
DSF max dTma [3, 15]: 0 °C
1-BDC ([1]; PanDDA event map background density correction, crystal soak, Compound_concentration 100 mM, PanDDA run dmso_34): 0.13
1-BDC [1, 6]: 0.13
PanDDA hit? ([1]; crystal soak, Compound_concentration 100 mM, Echo dispense 40 nl, PanDDA run dmso_34): TRUE
Modeled? ([1]; ligand modeled in crystal structure, crystal soak, Compound_concentration 100 mM, PanDDA run dmso_34): TRUE
Refined occupancy ([1]; crystal soaking of Mac1): 26
HIT* [1, 16]: Y

Nc1ncnc2c1ncn2Cc1ccc(Cl)cn1 [ZINC000559260078]
Spearman est (compound concentration vs apparent Tm) [3]: 0.88
DSF max dTma [3, 15]: 0.98 °C
1-BDC [1, 19]: 0.15
1-BDC [1, 6]: 0.15
PanDDA hit? [1, 20]: TRUE
Modeled? [1, 21]: TRUE
Refined occupancy ([1]; crystal soaking of Mac1): 30
HIT* [1, 16]: Y

Cc1ccc([C@@H]2C[C@@H](C)CCN2C(=O)c2ncnc3[nH]ccc23)o1 [ZINC000611664196]
Spearman est (compound concentration vs apparent Tm) [3]: −0.75
DSF max dTma ([3]; maximal thermal upshift): 0.14 ˚C
1-BDC [1, 17]: 0.05
1-BDC [1, 6]: 0.05
PanDDA hit? [1, 18]: TRUE
Modeled? [1, 22]: TRUE
Refined occupancy ([1]; crystal soaking of Mac1): 10
HIT* [1, 10]: Y

Nc1ncnc2c1ncn2Cc1cc(-c2ccco2)on1 [ZINC000681764827]
Spearman est (compound concentration vs apparent Tm) [3]: 0.38
DSF max dTma [3, 15]: 0.63 °C
1-BDC [1, 19]: 0.16
1-BDC [1, 6]: 0.16
PanDDA hit? [1, 20]: TRUE
Modeled? [1, 21]: TRUE
Refined occupancy ([1]; crystal soaking of Mac1): 50
HIT* [1, 16]: Y

O=C(c1ncnc2[nH]ccc12)N1CC=CC12CCCCC2 [ZINC000827900828]
Spearman est (compound concentration vs apparent Tm) [3]: −0.37
DSF max dTma [3, 15]: 0.93 °C
1-BDC [1, 19]: 0.18
1-BDC [1, 6]: 0.18
PanDDA hit? [1, 20]: TRUE
Modeled? [1, 21]: TRUE
Refined occupancy ([1]; crystal soaking of Mac1): 36
HIT* [1, 16]: Y

C[C@H]1CN(C(=O)c2cccc3[nH]c(=O)oc23)C[C@@H]1C(=O)O [ZINC000833624464]
Spearman est (compound concentration vs apparent Tm) [3]: −0.44
DSF max dTma ([3]; maximal thermal upshift): 0.3 ˚C
1-BDC (PanDDA) [1, 6]: 0.08
Modeled? [1, 23]: TRUE
Refined occupancy ([1]; crystal soaking of Mac1): 16
HIT* [1, 10]: Y

Cc1nnc(CNc2cnc(N)c(Cl)n2)n1C1CC1 [ZINC000893101964]
Spearman est (compound concentration vs apparent Tm) [3]: −0.12
DSF max dTma ([3]; maximal thermal upshift): 0.12 ˚C
1-BDC [1, 17]: 0.04
1-BDC [1, 6]: 0.04
PanDDA hit? [1, 18]: TRUE
Modeled? [1, 22]: TRUE
Refined occupancy ([1]; crystal soaking of Mac1): 8
HIT* [1, 10]: Y

CC(CSc1nnc2[nH]cnn12)c1ccccc1 (centres unmarked) [ZINC000920153280]
Spearman est (compound concentration vs apparent Tm) [3]: −0.66
DSF max dTma [3, 15]: 0 °C
1-BDC [1, 19]: 0.2
1-BDC [1, 6]: 0.2
PanDDA hit? [1, 20]: TRUE
Modeled? [1, 21]: TRUE
Refined occupancy ([1]; crystal soaking of Mac1): 40
HIT* [1, 16]: Y

Cc1noc(-c2ccnc(-c3ccnc4[nH]ccc34)c2)n1 [ZINC001240411747]
Spearman est (compound concentration vs apparent Tm) [3]: −0.16
DSF max dTma ([3]; maximal thermal upshift): 0.04 ˚C
1-BDC (PanDDA) [1, 6]: 0.07
Modeled? [1, 23]: TRUE
Refined occupancy ([1]; crystal soaking of Mac1): 14
HIT* [1, 10]: Y

Cc1cc(S(=O)(=O)N2CCC[C@H](C(N)=O)C2)cnc1N [ZINC001364774273]
Spearman est (compound concentration vs apparent Tm) [3]: 0.3
DSF max dTma ([3]; maximal thermal upshift): 0.21 ˚C
1-BDC [1, 6]: 0.1
Refined occupancy ([1]; crystal soaking of Mac1): 20
HIT* [1, 10]: Y

CN(Cc1nnc2c(=O)[nH]ccn12)c1ccc2nccnc2n1 [ZINC001472868186]
Spearman est (compound concentration vs apparent Tm) [3]: 0.79
DSF max dTma [3, 15]: 0.81 °C
1-BDC [1, 6]: 0.15
1-BDC ([1]; PanDDA event map, crystal soak, Compound_concentration 30 mM, PanDDA run dmso_34): 0.15
PanDDA hit? ([1]; crystal soak, Compound_concentration 30 mM, Echo dispense 40 nl, PanDDA run dmso_34): TRUE
Modeled? ([1]; ligand modeled in structure, crystal soak, Compound_concentration 30 mM): TRUE
Refined occupancy ([1]; crystal soaking of Mac1): 30
HIT* [1, 16]: Y
